Consider 7 molecules from patent publication US7163946B2 (Ligand Pharmaceuticals Incorporated, priority 2002, dated 2007).

SMILES strings stand for the structures.

The IC50 is the concentration at which inhibition is half-maximal. As usually defined, the EC50 is the concentration at which the effect is half-maximal. Low values mean higher potency in that assay, high ones lower potency in that assay.

Common to all, as to type: cell-based
Experiment [1] concerns the target T1, human mineralocorticoid receptor (hMR) (Homo sapiens, UniProt P08235).
T1 sequence (P08235 1-984): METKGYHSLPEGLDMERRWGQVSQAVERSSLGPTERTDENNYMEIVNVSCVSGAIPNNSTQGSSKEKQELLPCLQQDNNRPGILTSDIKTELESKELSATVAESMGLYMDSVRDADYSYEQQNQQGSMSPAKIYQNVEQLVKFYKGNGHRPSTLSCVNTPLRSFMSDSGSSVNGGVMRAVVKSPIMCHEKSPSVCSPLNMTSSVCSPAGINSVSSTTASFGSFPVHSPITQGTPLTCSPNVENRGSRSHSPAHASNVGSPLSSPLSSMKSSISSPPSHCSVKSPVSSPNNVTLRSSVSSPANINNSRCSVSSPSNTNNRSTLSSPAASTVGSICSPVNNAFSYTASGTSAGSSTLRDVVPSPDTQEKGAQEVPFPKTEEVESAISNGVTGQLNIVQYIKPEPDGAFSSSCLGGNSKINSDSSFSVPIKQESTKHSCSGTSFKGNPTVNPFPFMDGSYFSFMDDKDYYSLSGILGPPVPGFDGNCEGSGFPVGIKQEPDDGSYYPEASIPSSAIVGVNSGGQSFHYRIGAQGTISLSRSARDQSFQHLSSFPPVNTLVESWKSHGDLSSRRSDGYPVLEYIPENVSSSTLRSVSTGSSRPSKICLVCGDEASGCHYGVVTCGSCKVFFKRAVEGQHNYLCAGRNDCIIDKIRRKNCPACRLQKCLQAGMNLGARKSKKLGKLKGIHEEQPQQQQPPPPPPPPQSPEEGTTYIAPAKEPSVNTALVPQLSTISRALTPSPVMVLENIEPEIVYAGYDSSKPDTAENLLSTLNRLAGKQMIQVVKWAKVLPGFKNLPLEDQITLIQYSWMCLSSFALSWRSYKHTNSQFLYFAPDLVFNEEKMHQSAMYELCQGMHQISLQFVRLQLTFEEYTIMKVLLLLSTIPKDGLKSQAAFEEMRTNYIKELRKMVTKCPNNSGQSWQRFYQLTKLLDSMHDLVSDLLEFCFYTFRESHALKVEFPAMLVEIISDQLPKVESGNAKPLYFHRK
The experiment can be described thus: hMR cotransfection assay (potency ratio to hPR). Conditions: receptor-selectivity potency ratio, cotransfection assays.
Protocol: (§1) Antagonist efficacy was determined as a function (%) of maximal inhibition of a reference agonist at EC50 concentration. All the cotransfection experiments were carried out in 96-well plates by automation (Beckman Biomomek automated workstation).

The target in experiment [2] is T2, hPR (Homo sapiens, UniProt P06401).
T2 sequence (P06401 679-933 limits assumed): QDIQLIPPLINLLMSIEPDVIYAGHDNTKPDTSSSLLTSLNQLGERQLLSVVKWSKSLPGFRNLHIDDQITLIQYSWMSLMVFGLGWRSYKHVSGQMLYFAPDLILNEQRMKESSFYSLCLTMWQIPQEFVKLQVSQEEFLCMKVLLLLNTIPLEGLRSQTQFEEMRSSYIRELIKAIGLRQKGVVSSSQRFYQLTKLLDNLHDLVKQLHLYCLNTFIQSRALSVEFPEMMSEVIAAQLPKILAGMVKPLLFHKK
Nature of the experiment: T47D alkaline phosphatase assay, antagonist mode. The settings on record: T47D human breast cancer cells; for Emax: read-out: hPR Antagonists T47D Cells Eff. (%); for IC50: read-out: hPR Antagonists T47D Cells IC50.
Description: (§2) The potential tissue-selectivities of the selected analogues were examined by using the T47D alkaline phosphatase assay that was developed from human breast cancer cells with endogenous PRs.

In experiment [3] the target is T2, hPR. Nature of the experiment: T47D alkaline phosphatase assay, agonist mode. The settings on record: T47D human breast cancer cells; for Emax: T47D, read-out: hPR Agonist T47D cells Eff. (%).
Description: as §2
The target of experiment [4] is T3, hPR (Homo sapiens, UniProt P06401).
T3 sequence (P06401 1-933): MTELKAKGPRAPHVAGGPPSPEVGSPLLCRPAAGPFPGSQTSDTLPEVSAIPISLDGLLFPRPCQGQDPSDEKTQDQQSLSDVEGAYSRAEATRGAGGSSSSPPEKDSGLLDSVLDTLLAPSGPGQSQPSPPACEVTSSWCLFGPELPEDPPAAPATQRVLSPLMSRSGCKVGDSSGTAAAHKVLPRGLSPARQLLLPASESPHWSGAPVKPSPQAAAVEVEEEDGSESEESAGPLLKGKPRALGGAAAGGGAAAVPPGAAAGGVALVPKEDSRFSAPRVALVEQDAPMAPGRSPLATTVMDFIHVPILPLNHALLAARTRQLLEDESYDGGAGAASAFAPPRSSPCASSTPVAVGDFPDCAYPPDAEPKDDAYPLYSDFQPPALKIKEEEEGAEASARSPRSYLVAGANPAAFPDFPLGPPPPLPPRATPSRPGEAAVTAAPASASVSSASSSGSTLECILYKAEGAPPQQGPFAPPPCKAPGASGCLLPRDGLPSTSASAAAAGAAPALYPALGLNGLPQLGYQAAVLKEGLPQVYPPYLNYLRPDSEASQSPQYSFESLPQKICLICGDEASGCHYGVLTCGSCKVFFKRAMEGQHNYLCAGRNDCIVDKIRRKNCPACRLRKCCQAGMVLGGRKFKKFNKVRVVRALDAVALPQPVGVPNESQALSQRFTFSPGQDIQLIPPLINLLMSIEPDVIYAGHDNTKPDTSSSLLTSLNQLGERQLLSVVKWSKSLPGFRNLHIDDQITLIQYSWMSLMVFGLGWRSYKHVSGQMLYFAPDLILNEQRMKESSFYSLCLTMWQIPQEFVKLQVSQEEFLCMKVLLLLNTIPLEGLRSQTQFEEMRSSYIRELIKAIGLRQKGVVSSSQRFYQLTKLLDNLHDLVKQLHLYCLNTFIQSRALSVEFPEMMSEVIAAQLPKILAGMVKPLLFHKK
Nature of the experiment: hPR cotransfection assay in CV-1 cells, antagonist mode. The settings on record: for Emax: CV-1, CV-1 cells, maximal inhibition of reference agonist at EC50 concentration, read-out: hPR Antagonist CV-1 Cells Eff. (%); for IC50: CV-1 cells.
Protocol: as §1

`CC1=CC(C)(C)Nc2ccc3c(c21)/C(=C/Br)Oc1c(F)cc(F)cc1-3` [Compound 29, 7,9-difluoro-5(Z)-bromomethylidene-1,2-dihydro-2,2,4-trimethyl-5H-chromeno[3,4-f]quinoline]: in experiment [1], the “hMR EC50 or IC50/hPR EC50” value is >1000. Further, in experiment [2], the Emax came out at 40% and the half-inhibitory concentration (IC50) is 170 nM. Besides, in experiment [3], the concentration giving a half-maximal response (EC50) was 8.7 nM and the Emax came to 62%. In experiment [4], the Emax is < 20% and the IC50 was > 10000 nM.

As for `CC1=CC(C)(C)Nc2ccc3c(c21)/C(=C/c1ccccc1)Oc1c(F)cc(F)cc1-3` [Compound 10, 7,9-difluoro-5(Z)-benzylidene-1,2-dihydro-2,2,4-trimethyl-5H-chromeno[3,4-f]quinoline], in experiment [1], the “hMR EC50 or IC50/hPR EC50” value is recorded as >1000. Further, in experiment [2], the Emax came to 49% and the IC50 came out at 97 nM. In addition, in experiment [3], the concentration giving a half-maximal response (EC50) was found to be 30 nM and the Emax was 54%. In experiment [4], the Emax was < 20% and the concentration for half-maximal inhibition (IC50) was > 10000 nM.

Take `CC1=CC(C)(C)Nc2ccc3c(c21)C(c1ccc(Cl)c(C)c1)Oc1c(F)cc(F)cc1-3` (racemic) [Compound 37, (±)-7,9-difluoro-5-(4-chloro-3-methylphenyl)-1,2-dihydro-2,2,4-trimethyl-5H-chromeno[3,4-f]quinoline]: the “hMR EC50 or IC50/hPR EC50” value in experiment [1] is listed as >1000. Moreover, in experiment [2], the Emax worked out at 56% and the half-maximal inhibitory concentration (IC50) came to 150 nM. In addition, in experiment [3], the EC50 was determined as 130 nM and the Emax turned out to be 50%. Also, in experiment [4], the Emax is < 20% and the IC50 is > 10000 nM.

Turning to `CC1=CC(C)(C)Nc2ccc3c(c21)C(c1cccc(Cl)c1)Oc1c(F)cc(F)cc1-3` (racemic) [Compound 41, (±)-7,9-difluoro-5-(3-chlorophenyl)-1,2-dihydro-2,2,4-trimethyl-5H-chromeno[3,4-f]quinoline], the “hMR EC50 or IC50/hPR EC50” value in experiment [1] stood at 905. Further, in experiment [2], the Emax was 50% and the IC50 is 135 nM. In experiment [3], the concentration for a half-maximal effect (EC50) was determined as 42 nM and the Emax is 54%. In addition, in experiment [4], the Emax is < 20% and the IC50 was > 10000 nM.

`CC1=CC(C)(C)Nc2ccc3c(c21)C(c1cc2ccccc2s1)Oc1c(F)cc(F)cc1-3` (racemic) [Compound 63, (±)-7,9-difluoro-5-(benzo[b]thien-2-yl)-1,2-dihydro-2,2,4-trimethyl-5H-chromeno[3,4-f]quinoline]: the “hMR EC50 or IC50/hPR EC50” value in experiment [1] was >1000. Besides, in experiment [2], the Emax worked out at 49% and the concentration for half-maximal inhibition (IC50) turned out to be 490 nM. Further, in experiment [3], the concentration giving a half-maximal response (EC50) was 20 nM and the Emax was 61%. Besides, in experiment [4], the Emax was < 20% and the half-maximal inhibitory concentration (IC50) is > 10000 nM.

For `CC1=CC(C)(C)Nc2ccc3c(c21)/C(=C/c1cc(F)ccc1F)Oc1c(F)cc(F)cc1-3` [Compound 17, 7,9-difluoro-5(Z)-(2,5-difluorobenzylidene)-1,2-dihydro-2,2,4-trimethyl-5H-chromeno[3,4-f]quinoline], the “hMR EC50 or IC50/hPR EC50” value in experiment [1] is >1000. For the same molecule, the Emax in experiment [2] is 42%; in experiment [3], 62%; in experiment [4] it was < 20%. The IC50 is 389 nM in experiment [2] and > 10000 nM in experiment [4]. The same molecule displayed an EC50 in experiment [3] of 12 nM.

On to `CC1=CC(C)(C)Nc2ccc3c(c21)C(c1ccccc1)Oc1c(F)cc(F)cc1-3` (racemic) [Compound 33, (±)-7,9-difluoro-5-phenyl-1,2-dihydro-2,2,4-trimethyl-5H-chromeno[3,4-f]quinoline], for which the “hMR EC50 or IC50/hPR EC50” value in experiment [1] is given as >1000. In experiment [2], the Emax is < 20% and the IC50 is > 10000 nM. Moreover, in experiment [3], the EC50 was determined as 35 nM and the Emax amounted to 62%. In experiment [4], the Emax was < 20% and the half-inhibitory concentration (IC50) was > 10000 nM.
